Test results from US20130196052A1, “ANTIMICROBIAL/ANTIBACTERIAL MEDICAL DEVICES COATED WITH TRADITIONAL CHINESE MEDICINES” (ETHICON, INC., priority 2009, published 2013).

What was measured:
[1] = Particle size analysis by laser diffraction; format: physicochemical; conditions: commercial grade, needle-like crystals
Procedure: Studies were run using sutures coated with the sodium houttuyfonate antimicrobial coatings disclosed herein, with the sodium houttuyfonate coatings prepared using either ground or unground sodium houttuyfonate. The sutures were coated at two coating levels, using the coating method described hereinabove. Particle size analysis was performed using a Beckman Coulter model LS 320 laser diffraction particle size analyzer. Results for these studies are presented below in Tables 5-7 and graphically depicted in FIGS. 1 and 2.

[2] = system: Bacillus typhi, and Leptopira; conditions: in words; cited from earlier work
[3] = system: Micrococcus catarrhalis, Staphylococcus aureus, Bacillus influenzae, pneumococcus, Escherichia coli, Bacillus dysenteria, Bacillus proteus, Bacillus …; conditions: in words; cited from earlier work
[4] = in words; cited from earlier work
[5] = cited from earlier work
susceptible strains = conditions: in words; cited from earlier work

CCCCCCCCCC(=O)CC(O)S(=O)(=O)O (centres unmarked) [Commercial grade sodium houttuyfonate, sodium houttuyfonate]
particle size distribution, mean [1]: approximately 145 μm

CCCCCCCCCC(=O)CC=O [Houttuynin, decanoyl acetaldehyde]
effect in vitro [2]: strong effect | inhibitory effect in vitro [3]: marked inhibitory effect | stability [4]: unstable and prone to polymerize

CCCCCCCCCC(=O)CC(O)S(=O)(=O)O (centres unmarked) [sodium houttuyfonate]
solubility in cold water ([5]; cold water): only slightly soluble | solubility in most organic solvents ([5]; organic solvents such as acetonitrile and methanol): only slightly soluble | stability [4]: more stable

Oc1cc(Cl)ccc1Oc1ccc(Cl)cc1Cl [triclosan]
mode of antibacterial activity (susceptible strains): predominantly bacteriostatic activity
